Data on 46 compounds can be found in patent US4387106A, “Method of treating atherosclerosis with di(aralkyl)ureas and di(aralkyl)thioureas” (American Cyanamid Company, priority 1982, dated 1983).

Assay [1] addresses T1, fatty acyl CoA:cholesterol acyl transferase (ACAT) (Rattus norvegicus, UniProt O70536).
T1 construct: The supernatant, containing the microsomal fraction, served as the source of the cholesterol-esterifying enzyme; from tissue; host or cells: rat adrenals, homogenate, 1000 x g supernatant containing the microsomal fraction
T1 sequence (O70536 1-545): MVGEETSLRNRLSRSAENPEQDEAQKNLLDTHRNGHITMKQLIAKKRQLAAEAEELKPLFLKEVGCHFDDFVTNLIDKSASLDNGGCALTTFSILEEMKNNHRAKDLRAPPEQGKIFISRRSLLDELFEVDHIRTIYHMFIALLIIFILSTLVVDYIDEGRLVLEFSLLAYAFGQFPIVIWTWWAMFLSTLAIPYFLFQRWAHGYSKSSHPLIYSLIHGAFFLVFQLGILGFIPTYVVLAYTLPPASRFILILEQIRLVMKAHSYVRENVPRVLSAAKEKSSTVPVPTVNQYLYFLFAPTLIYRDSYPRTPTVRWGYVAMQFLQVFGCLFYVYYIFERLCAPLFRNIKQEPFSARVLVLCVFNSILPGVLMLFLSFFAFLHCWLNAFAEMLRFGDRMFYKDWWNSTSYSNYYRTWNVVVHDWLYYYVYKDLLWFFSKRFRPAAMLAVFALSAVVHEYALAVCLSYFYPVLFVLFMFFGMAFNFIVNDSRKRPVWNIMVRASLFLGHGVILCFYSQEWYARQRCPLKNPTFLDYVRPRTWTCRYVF
The experiment in a line: In vitro inhibition of fatty acyl CoA:cholesterol acyl transferase (ACAT), rat adrenal supernatant. Format: biochemical. Particulars: pH 7.4, 37° C., oleoyl CoA (14C). The procedure: The compounds were tested for their ability to inhibit ACAT according to the following procedure:
Rat adrenals were homogenized in 0.2 M monobasic potassium phosphate buffer, pH 7.4, and centrifuged at 1000 times gravity for 15 minutes at 5° C. The supernatant, containing the microsomal fraction, served as the source of the cholesterol-esterifying enzyme, fatty acyl CoA:cholesterol acyl transferase (ACAT). A mixture comprising 50 parts of adrenal supernatant, 10 parts of albumin (BSA) (50 mg./ml.), 3 parts of test compound (final concentration 5.2 μg./ml.) and 500 parts of buffer was preincubated at 37° C. for 10 minutes. After treatment with 20 parts of oleoyl CoA (^14 C--0.4 μCi) the mixture was incubated at 37° C. for 10 minutes. A control mixture, omitting the test compound, was prepared and treated in the same manner. The lipids from the incubation mixture were extracted into an organic solvent and separated by thin-layer chromatography. The cholesteryl ester fraction was counted in a scintillation counter.

The test system of a further assay is Cholesterol absorption. To be noted: po, 0.03 % of diet, 336 h.
Where [2] appears, read: final concentration 5.2 μg./ml.
Setting [3] is: pH 7.4, final concentration 5.2 μg./ml.

Method for Cholesterol absorption: Compounds were tested in vitro for their ability to inhibit the enzyme fatty acyl CoA:cholesterol acyl transferase (ACAT) and in vivo for serum hypolipidemic activity as measured by their ability to inhibit lipid absorption in rats.
Inhibition of Cholesterol absorption was determined by feeding male Sprague-Dawley rats, weighing 150-170 g., A 1% cholesterol:0.5% cholic acid diet for 2 weeks. The diet also contained compounds being tested at a dose of 0.03% of the diet. Control rats were fed the same diet without any compound. At the end of the test, the rats were sacrificed by decapitation. Blood is collected, centrifuged at 1.5 kg times gravity for 10 minutes at 4° C., and the serum is then analyzed for cholesterol and triglycerides enzymatically by the method of Trinder, P., Analyst, 77, 321 (1952) on a Centrifichem 400 Analyzer. Livers are removed, a 0.4 g sample is taken from the center of the large lobe, and the sample is subjected to saponification using 25% saturated potassium hydroxide in ethanol. The resulting neutral sterols are extracted with petroleum ether and extract analyzed for cholesterol. The effectiveness of the compound in inhibiting cholesterol absorption is measured by the lowering of either serum cholesterol or liver cholesterol relative the values for control rats.

On to `COc1ccc(OC)c(NC(=O)N(Cc2ccccc2)Cc2ccccc2)c1` [1,1-Dibenzyl-3-(2,5-dimethoxyphenyl)urea], for which the inhibition at 5.2 µg/mL in assay [1] (setting [2]) was 87.9%.

As for `O=C(Nc1ccccc1C(F)(F)F)N(Cc1ccccc1)Cc1ccccc1` [1,1-Dibenzyl-3-(2-trifluoromethylphenyl)urea], the “Result (inhibition of cholesterol absorption: lowering of serum or liver cholesterol relative to control)” value in the assay with Cholesterol absorption was “Active”. In addition, the inhibition at 5.2 µg/mL in assay [1] (setting [2]) is 68.4%.

In assay [1] (setting [2]), `O=C(O)c1ccc(NC(=O)N(Cc2ccccc2)Cc2ccccc2)cc1` [1,1-Dibenzyl-3-(4-carboxyphenyl)urea] came in with an inhibition at 5.2 µg/mL of 14.1%.

In assay [1] (setting [2]), `O=C(Nc1cccc(Cl)c1Cl)N(Cc1ccccc1)Cc1ccccc1` [1,1-Dibenzyl-3-(2,3-dichlorophenyl)urea] gave an inhibition at 5.2 µg/mL of 79.7%.

As for `Cc1cccc(Cl)c1NC(=O)N(Cc1ccccc1)Cc1ccccc1` [1,1-Dibenzyl-3-(6-chloro-2-methylphenyl)urea], the inhibition at 5.2 µg/mL in assay [1] (setting [2]) is 83.9%.

Take `O=C(Nc1ccc(Cl)cc1)N(Cc1ccccc1)Cc1ccccc1` [1,1-Dibenzyl-3-(4-chlorophenyl)urea]: in assay [1] (setting [2]), the inhibition at 5.2 µg/mL was found to be 77.5%.

`CCc1cccc(C)c1NC(=O)N(Cc1ccccc1)Cc1ccccc1` [1,1-Dibenzyl-3-(6-ethyl-2-methylphenyl)urea] had an inhibition at 5.2 µg/mL in assay [1] (setting [2]) of 73.6%.

Consider `O=C(Nc1c(Cl)cccc1Cl)N(Cc1ccccc1)Cc1ccccc1` [1,1-Dibenzyl-3-(2,6-dichlorophenyl)urea], for which the inhibition at 5.2 µg/mL in assay [1] (setting [2]) was found to be 88.6%.

As for `CSc1ccc(NC(=O)N(Cc2ccccc2)Cc2ccccc2)cc1` [1,1-Dibenzyl-3-(4-methylthiophenyl)urea], the inhibition at 5.2 µg/mL in assay [1] (setting [2]) was determined as 67.1%.

As for `COc1cccc(NC(=O)N(Cc2ccccc2)Cc2ccccc2)c1` [1,1-Dibenzyl-3-(3-methoxyphenyl)urea], the inhibition at 5.2 µg/mL in assay [1] (setting [2]) was found to be 87%.

In the case of `O=C(Nc1ccc(Br)cc1Br)N(Cc1ccccc1)Cc1ccccc1` [1,1-Dibenzyl-3-(2,4-dibromophenyl)urea], the inhibition at 5.2 µg/mL in assay [1] (setting [2]) turned out to be 81.9%.

Turning to `O=C(Nc1ccc(Oc2ccccc2)cc1)N(Cc1ccccc1)Cc1ccccc1` [1,1-Dibenzyl-3-(4-phenoxyphenyl)urea], the “Result (inhibition of cholesterol absorption: lowering of serum or liver cholesterol relative to control)” value in the assay on Cholesterol absorption was “Active”. Also, the inhibition at 5.2 µg/mL in assay [1] (setting [2]) came out at 94.3%.

Take `CC(C)c1cccc(C(C)C)c1NC(=O)N(Cc1ccccc1)Cc1ccccc1` [1,1-Dibenzyl-3-(2,6-isopropylphenyl)urea, 1,1-Dibenzyl-3-(2,6-diisopropylphenyl)urea]: the inhibition at 5.2 µg/mL in assay [1] (setting [2]) amounted to 59.1%.

Compound `O=C(Nc1ccc([N+](=O)[O-])cc1)N(Cc1ccccc1)Cc1ccccc1` [1,1-Dibenzyl-3-(4-nitrophenyl)urea] displayed an inhibition at 5.2 µg/mL in assay [1] (setting [2]) of 52.2%.

For `O=C(Nc1ccc(Cl)cc1Cl)N(Cc1ccccc1)Cc1ccccc1` [1,1-Dibenzyl-3-(2,4-dichlorophenyl)urea], in the assay with Cholesterol absorption, the “Result (inhibition of cholesterol absorption: lowering of serum or liver cholesterol relative to control)” value is listed as “Active”. This compound also returned an inhibition at 5.2 µg/mL in assay [1] (setting [2]) of 83.3%.

Compound `O=C(Nc1cccc(Cl)c1)N(Cc1ccccc1)Cc1ccccc1` [1,1-Dibenzyl-3-(3-chlorophenyl)urea] had an inhibition at 5.2 µg/mL in assay [1] (setting [2]) of 94.2%.

Regarding `O=C(Nc1ccc(Cl)c(C(F)(F)F)c1)N(Cc1ccccc1)Cc1ccccc1` [1,1-Dibenzyl-3-(4-chloro-3-trifluoromethylphenyl)urea], the inhibition at 5.2 µg/mL in assay [1] (setting [2]) was found to be 92%.

For `CCOC(=O)c1ccc(NC(=O)N(Cc2ccccc2)Cc2ccccc2)cc1` [1,1-Dibenzyl-3-(4-carboethoxyphenyl)urea], the “Result (inhibition of cholesterol absorption: lowering of serum or liver cholesterol relative to control)” value with Cholesterol absorption is listed as “Active”. The compound also had an inhibition at 5.2 µg/mL in assay [1] (setting [2]) of 94.9%.

In assay [1] (setting [2]), `O=C(Nc1cccc2ccccc12)N(Cc1ccccc1)Cc1ccccc1` [1,1-Dibenzyl-3-(2,3-dibenzophenyl)urea] had an inhibition at 5.2 µg/mL of 90%.

`CCOc1ccc(NC(=O)N(Cc2ccccc2)Cc2ccccc2)cc1` [1,1-Dibenzyl-3-(4-ethoxyphenyl)urea]: at 5.2 µg/mL the inhibition in assay [1] (setting [2]) was 95.8%.

As to `CCOC(=O)c1ccc(NC(=S)N(Cc2ccccc2)Cc2ccccc2)cc1` [1,1-Dibenzyl-3-(4-carboethoxyphenyl)thiourea], in assay [1] (setting [2]), the inhibition at 5.2 µg/mL was found to be 76.6%.

Consider `O=C(Nc1ccccc1Br)N(Cc1ccccc1)Cc1ccccc1` [1,1-Dibenzyl-3-(2-bromophenyl)urea], for which the inhibition at 5.2 µg/mL in assay [1] (setting [2]) worked out at 93.9%.

`Cc1ccc(C)c(NC(=O)N(Cc2ccccc2)Cc2ccccc2)c1` [1,1-Dibenzyl-3-(2,5-dimethylphenyl)urea] came in with an inhibition at 5.2 µg/mL in assay [1] (setting [2]) of 89.1%.

Compound `COc1ccc(NC(=O)N(Cc2ccccc2)Cc2ccccc2)cc1` [1,1-Dibenzyl-3-(4-methoxyphenyl)urea] returned an inhibition at 5.2 µg/mL in assay [1] (setting [2]) of 71.6%.

In turn, `O=C(Nc1cc(F)ccc1F)N(Cc1ccccc1)Cc1ccccc1` [1,1-Dibenzyl-3-(2,5-difluorophenyl)urea] gave an inhibition at 5.2 µg/mL in assay [1] (setting [2]) of 72%.

As to `O=C(Nc1ccccc1Cl)N(Cc1ccccc1)Cc1ccccc1` [1,1-Dibenzyl-3-(2-chlorophenyl)urea], the inhibition at 5.2 µg/mL in assay [1] (setting [2]) came to 87.8%.

In assay [1] (setting [2]), `O=C(Nc1cc(Cl)ccc1Cl)N(Cc1ccccc1)Cc1ccccc1` [1,1-Dibenzyl-3-(2,5-dichlorophenyl)urea] returned an inhibition at 5.2 µg/mL of 82.4%.

In assay [1] (setting [2]), `CCc1cccc(CC)c1NC(=O)N(Cc1ccccc1)Cc1ccccc1` [1,1-Dibenzyl-3-(2,6-diethylphenyl)urea] had an inhibition at 5.2 µg/mL of 72%.

As to `Cc1cc(C)cc(NC(=O)N(Cc2ccccc2)Cc2ccccc2)c1` [1,1-Dibenzyl-3-(3,5-dimethylphenyl)urea], 5.2 µg/mL produced 90.2% inhibition in assay [1] (setting [2]).

In assay [1] (setting [2]), `Cc1cccc(NC(=O)N(Cc2ccccc2)Cc2ccccc2)c1` [1,1-Dibenzyl-3-(3-methylphenyl)urea] had an inhibition at 5.2 µg/mL of 88.9%.

In the case of `O=C(Nc1ccc(Br)cc1)N(Cc1ccccc1)Cc1ccccc1` [1,1-Dibenzyl-3-(4-bromophenyl)urea], in assay [1] (setting [2]), the inhibition at 5.2 µg/mL was 79.9%.

Consider `CC(=O)c1cccc(NC(=O)N(Cc2ccccc2)Cc2ccccc2)c1` [1,1-Dibenzyl-3-(3-acetylphenyl)urea], for which at 5.2 µg/mL the inhibition in assay [1] (setting [2]) was 80.7%.

`FC(F)(F)c1cccc(NC(=S)N(Cc2ccccc2)Cc2ccccc2)c1` [1,1-Dibenzyl-3-(3-trifluoromethylphenyl)thiourea] registered an inhibition at 5.2 µg/mL in assay [1] (setting [2]) of 88.6%.

On to `O=C(Nc1cccc(C(F)(F)F)c1)N(Cc1ccccc1)Cc1ccccc1` [1,1-Dibenzyl-3-(3-trifluoromethylphenyl)urea], for which, in assay [1] (setting [2]), testing at 5.2 µg/mL gave an inhibition of 94.2%.

Regarding `O=C(Nc1cccc([N+](=O)[O-])c1)N(Cc1ccccc1)Cc1ccccc1` [1,1-Dibenzyl-3-(3-nitrophenyl)urea], the inhibition at 5.2 µg/mL in assay [1] (setting [2]) was found to be 81.3%.

`Cc1cccc(C)c1NC(=O)N(Cc1ccccc1)Cc1ccccc1` [1,1-Dibenzyl-3-(2,6-dimethylphenyl)urea] gave an inhibition at 5.2 µg/mL in assay [1] (setting [2]) of 56.1%.

As to `O=C(Nc1ccc2ccccc2c1)N(Cc1ccccc1)Cc1ccccc1` [1,1-Dibenzyl-3-(3,4-dibenzophenyl)urea], the inhibition at 5.2 µg/mL in assay [1] (setting [3]) was 97.3%.

On to `O=C(Nc1cc(Cl)cc(Cl)c1)N(Cc1ccccc1)Cc1ccccc1` [1,1-Dibenzyl-3-(3,5-dichlorophenyl)urea], for which at 5.2 µg/mL the inhibition in assay [1] (setting [2]) was 86.1%.

In turn, `Cc1c(Cl)cccc1NC(=O)N(Cc1ccccc1)Cc1ccccc1` [1,1-Dibenzyl-3-(3-chloro-2-methylphenyl)urea] yielded an inhibition at 5.2 µg/mL in assay [1] (setting [2]) of 83.8%.

With `O=C(Nc1ccc(Cl)c(Cl)c1)N(Cc1ccccc1)Cc1ccccc1` [1,1-Dibenzyl-3-(3,4-dichlorophenyl)urea], in assay [1] (setting [2]), 5.2 µg/mL produced 94.5% inhibition.

Take `O=C(Nc1ccccc1)N(Cc1ccccc1)Cc1ccccc1` [1,1-Dibenzyl-3-phenylurea, 1,1-Dibenzyl-3-phenyl urea]: testing at 5.2 µg/mL in assay [1] (setting [2]) gave an inhibition of 90.4%.

On to `Cc1ccc(NC(=O)N(Cc2ccccc2)Cc2ccccc2)cc1` [1,1-Dibenzyl-3-(4-methylphenyl)urea], for which the inhibition at 5.2 µg/mL in assay [1] (setting [2]) is 89.8%; in assay [1] (setting [3]), 86.5%.

In assay [1] (setting [2]), `Cc1ccccc1NC(=O)N(Cc1ccccc1)Cc1ccccc1` [1,1-Dibenzyl-3-(2-methylphenyl)urea] came in with an inhibition at 5.2 µg/mL of 77%.

As for `O=C(Nc1ccc(I)cc1)N(Cc1ccccc1)Cc1ccccc1` [1,1-Dibenzyl-3-(4-iodophenyl)urea], 5.2 µg/mL produced 85.2% inhibition in assay [1] (setting [2]).

In turn, `COc1ccccc1NC(=O)N(Cc1ccccc1)Cc1ccccc1` [1,1-Dibenzyl-3-(2-methoxyphenyl)urea] displayed an inhibition at 5.2 µg/mL in assay [1] (setting [2]) of 91%.

`CCCCOc1ccc(NC(=O)N(Cc2ccccc2)Cc2ccccc2)cc1` [1,1-Dibenzyl-3-(4-n-butoxyphenyl)urea] returned an inhibition at 5.2 µg/mL in assay [1] (setting [2]) of 90.2%.
